Experimental data as given in the NIST ThermoML archive (doi:10.1021/je100679s).
Numbers after ± are expanded uncertainties.

Assays:
[1] = 101 kPa, Liquid; for electrical conductivity: DDS-307 conductivity meter
[2] = xn = mol fraction of the nth substance listed; settings: 101 kPa, Liquid, x2 = 0

Compound	mass density ([1]; 293.15 K) [kg/m3]	mass density ([1]; 298.15 K) [kg/m3]	mass density ([1]; 303.15 K) [kg/m3]	mass density ([1]; 308.15 K) [kg/m3]	mass density ([1]; 313.15 K) [kg/m3]	mass density ([1]; 318.15 K) [kg/m3]	mass density ([1]; 323.15 K) [kg/m3]	mass density ([1]; 328.15 K) [kg/m3]	mass density ([1]; 333.15 K) [kg/m3]	other results
CCCCCCn1cc[n+](C)c1C.O=S(=O)([N-]S(=O)(=O)C(F)(F)F)C(F)(F)F	1358.19 ± 2.9	1353.11 ± 2.8	1348.71 ± 2.8	1344.29 ± 2.8	1339.88 ± 2.8	1335.47 ± 2.7	1331.06 ± 2.7	1326.65 ± 2.7	1322.24 ± 2.7	electrical conductivity ([1]; 298.15 K): 0.108 ± 0.0068 S/m; electrical conductivity ([1]; 303.15 K): 0.158 ± 0.0097 S/m; electrical conductivity ([1]; 308.15 K): 0.213 ± 0.013 S/m; electrical conductivity ([1]; 313.15 K): 0.271 ± 0.016 S/m; electrical conductivity ([1]; 318.15 K): 0.319 ± 0.019 S/m; electrical conductivity ([1]; 323.15 K): 0.369 ± 0.022 S/m; electrical conductivity ([1]; 328.15 K): 0.426 ± 0.026 S/m; electrical conductivity ([1]; 333.15 K): 0.48 ± 0.029 S/m
COC(=O)OC [dimethyl carbonate]	1069.92 ± 0.69	1063.34 ± 0.67	1056.72 ± 0.65	1050.07 ± 0.62	1043.39 ± 0.6	1036.69 ± 0.57	1029.94 ± 0.55	1023.25 ± 0.53	1016.32 ± 0.5	
COC(=O)OC [dimethyl carbonate] + CCCCCCn1cc[n+](C)c1C.O=S(=O)([N-]S(=O)(=O)C(F)(F)F)C(F)(F)F										mass density ([2]; 293.15 K): 1069.92 ± 0.69 kg/m3; mass density ([2]; 298.15 K): 1063.34 ± 0.67 kg/m3; mass density ([2]; 303.15 K): 1056.72 ± 0.65 kg/m3; mass density ([2]; 308.15 K): 1050.07 ± 0.62 kg/m3; mass density ([2]; 313.15 K): 1043.39 ± 0.6 kg/m3; mass density ([2]; 318.15 K): 1036.69 ± 0.57 kg/m3; mass density ([2]; 323.15 K): 1029.94 ± 0.55 kg/m3; mass density ([2]; 328.15 K): 1023.25 ± 0.53 kg/m3; mass density ([2]; 333.15 K): 1016.32 ± 0.5 kg/m3
